Measured values as given in patent US5763673A, “Diarylheptanoide derivative and pharmaceutical composition comprising the same” (Kabushiki Kaisha Yakult Honsha, priority 1994, dated 1998).

Assays:
5-lipoxygenase [1] = details: background, as reported; cited from earlier work
[2] = tested on: TPA induced edematization in ears; experiment: Ear edema induction test with TPA (12-O-tetradecanoylphorbol-13-acetate); type: in vivo, ICR male mouse; details: 0.5 mg/ear; for Rate of inhibition (%): 4 h after TPA, relative to rate of edematization of control group taken as 100; for Rate of edematization (%): both sides of right ear, 4 h after TPA (10 μl of 40 μg/ml), control group 161.1
Experimental: Four hours after the application of TPA, the center of right and left ears was cut out with a punch with a diameter of 6.5 mm to measure the weights. The rate of edematization of ears was calculated according to the following formula: [formula] The rate of edema enlargement inhibition was determined taking the rate of edematization of the control group to which no compound was applied as 100.

5-lipoxygenase [3] = experiment: 5-Lipoxygenase inhibiting activity (5-HETE production); type: biochemical, rat; details: RBL-1 5-lipoxygenase; 5-HETE by HPLC; values only in FIG. 1
Experimental: A sample of 5-lipoxygenase was prepared from basophilic leukemia cells of rat (RBL-1). First, the RBL-1 was cultured in an MEM medium (manufactured by Nissui Pharmaceutical Co.) containing 0.0292% of L-glutamine and 10% of FCS under conditions of 5% CO2 and at 37° C. for 3 days. After culture, the cells were collected by centrifuge (1000 rpm, 10 min., 4° C.) and washed twice with Dulbeccol's PBS (-) (manufactured by Nissui Pharmaceutical Co.) . The cells were suspended in 50 ml of Tris-HCl buffer (pH 7.4) at a concentration of 7.5×10^7 cells/ml. The cell suspension was ultrasonically treated in an ice bath and centrifuged (1300 rpm, 30 min., 4° C.) to obtain a 5- lipoxygenase sample as supernatant.
76 μl of 50 mM Tris-HCl buffer (pH 7.4) containing 2.56 mM of CaCl2 and 2.56 mM of ATP and 20 μl of 5-lipoxygenase sample prepared above were added to 2μl of a solution containing a prescribed amount of the diarylheptanoide derivative (1) prepared in Example 1 in DSMO. The mixture was incubated at 37° C. […] The amount of 5-HETE in the supernatant was measured by HPLC (column: Nova-pak 5C18; eluant: a 60:40 acetonitrile:0.05 M KH2 PO4 solution with 5 mM trihexyl bromide added; flow rate: 0.8 ml/min.; wavelength: 235 nm). The amount of 5-HETE produced was calculated from the peak area of the 5-HETE. […]

ears of mice = experiment: Toxicity on application to ears of mice; type: in vivo; details: 5 mg/ear, 10 times the effective concentration

Row | Compound | 5-lipoxygenase inhibiting activity (in words) (5-lipoxygenase [1]) | Rate of inhibition (%) [2] | Rate of edematization (%) [2] | 5-lipoxygenase inhibiting effect (in words) (5-lipoxygenase [3]) | toxicity (in words) (ears of mice) | effect compared with comparative compound (6) (in words) [2] | effect for inhibiting TPA induced edematization in ears (in words) [2]
1 | O=C(C=Cc1ccc(O)c(O)c1)CCCCc1ccccc1 [(6), 1-(3,4-dihydroxyphenyl)-7-phenyl-1-heptene-3-one, reference compound] | most strong 5-lipoxygenase inhibiting action | 84.5% | 24.9% | – | – | – | –
2 | COc1cc(C=CC(=O)CCCCc2ccccc2)cc(OC)c1O [Compound (1), 1-(3,5-dimethoxy-4-hydroxyphenyl)-7-phenyl-1-heptene-3-one] | – | 96.1% | 6.3% | strong 5-lipoxygenase inhibiting effect | No toxicity was exhibited | stronger than that of the comparative compound | strong effect for inhibiting TPA induced edematization in ears
3 | COc1cc(CCC(=O)CCCCc2ccccc2)ccc1O [Yakuchinone-A] | exhibiting a 5-lipoxygenase inhibiting activity | – | – | – | – | – | –
4 | COc1cc(/C=C/C(=O)CCCCc2ccccc2)ccc1O [Yakuchinone-B] | exhibiting a 5-lipoxygenase inhibiting activity | – | – | – | – | – | –
